According to ChEMBL document CHEMBL1909046, “DrugMatrix in vitro pharmacology data”:

Assays:
[1] = biological target: Sigma non-opioid intracellular receptor 1 (Homo sapiens, UniProt Q99720); assay: DRUGMATRIX: Sigma1 radioligand binding (ligand: [3H] Haloperidol); format: cell membranes, Jurkat, Membrane; details: Not Active = under 50% inhibition at 10 µM
[2] = biological target: T1, Vasoactive intestinal polypeptide receptor 1 (Homo sapiens, UniProt P32241); format: cell membranes, Membrane; details: ht-29; also: in other assays of this panel Not Active means under 50% inhibition at 10 µM
T1 sequence (P32241 whole entry): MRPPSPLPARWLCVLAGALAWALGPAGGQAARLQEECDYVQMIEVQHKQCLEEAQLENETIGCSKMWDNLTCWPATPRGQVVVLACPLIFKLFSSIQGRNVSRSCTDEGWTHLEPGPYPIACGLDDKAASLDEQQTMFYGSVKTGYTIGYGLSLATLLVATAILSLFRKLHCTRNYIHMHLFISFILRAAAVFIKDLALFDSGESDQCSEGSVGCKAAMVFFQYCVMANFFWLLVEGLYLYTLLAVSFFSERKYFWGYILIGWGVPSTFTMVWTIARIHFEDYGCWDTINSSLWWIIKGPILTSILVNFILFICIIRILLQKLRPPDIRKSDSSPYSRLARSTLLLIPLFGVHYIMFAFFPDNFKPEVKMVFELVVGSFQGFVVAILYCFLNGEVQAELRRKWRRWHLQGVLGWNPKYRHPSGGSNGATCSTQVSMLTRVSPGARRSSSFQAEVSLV

[3] = DRUGMATRIX: Leukotriene, BLT (LTB4) radioligand binding (ligand: [3H]LTB4); format: cell membranes, Membrane; details: u-937; Not Active = under 50% inhibition at 10 µM
Melanocortin receptor 3 = Melanocortin receptor 3 (Homo sapiens, UniProt P41968); format: cell membranes, Membrane; details: hek293; also: in other assays of this panel Not Active means under 50% inhibition at 10 µM
Sequence of Melanocortin receptor 3 (P41968 whole entry): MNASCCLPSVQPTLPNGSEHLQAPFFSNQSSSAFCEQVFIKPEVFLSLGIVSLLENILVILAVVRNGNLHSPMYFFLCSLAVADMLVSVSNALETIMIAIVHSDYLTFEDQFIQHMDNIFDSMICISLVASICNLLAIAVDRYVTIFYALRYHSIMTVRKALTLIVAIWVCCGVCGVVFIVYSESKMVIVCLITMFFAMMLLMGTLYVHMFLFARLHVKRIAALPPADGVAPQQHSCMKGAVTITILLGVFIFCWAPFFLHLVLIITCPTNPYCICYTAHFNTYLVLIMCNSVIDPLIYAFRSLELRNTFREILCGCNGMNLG

Mu-type opioid receptor = Mu-type opioid receptor (Homo sapiens, UniProt P35372); assay: DRUGMATRIX: Opiate mu (OP3, MOP) radioligand binding (ligand: [3H] Diprenorphine); format: cell membranes, CHO-K1, Membrane; details: Not Active = under 50% inhibition at 10 µM
Sequence of Mu-type opioid receptor (P35372 whole entry): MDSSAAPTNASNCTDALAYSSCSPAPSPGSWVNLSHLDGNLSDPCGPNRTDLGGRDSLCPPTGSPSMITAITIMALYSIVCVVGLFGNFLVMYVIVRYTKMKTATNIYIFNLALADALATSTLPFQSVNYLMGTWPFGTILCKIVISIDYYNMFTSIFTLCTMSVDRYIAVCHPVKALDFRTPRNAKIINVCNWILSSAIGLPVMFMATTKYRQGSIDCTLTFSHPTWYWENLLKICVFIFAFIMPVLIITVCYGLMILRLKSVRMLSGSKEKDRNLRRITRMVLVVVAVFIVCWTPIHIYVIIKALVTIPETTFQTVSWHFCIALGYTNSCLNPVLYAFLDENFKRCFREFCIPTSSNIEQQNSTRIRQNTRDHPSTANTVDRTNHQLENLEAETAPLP

[4] = biological target: cGMP-specific 3',5'-cyclic phosphodiesterase (Homo sapiens, UniProt O76074); assay: DRUGMATRIX: Phosphodiesterase PDE5 enzyme inhibition (substrate: [3H]cGMP + cGMP); format: tissue-based; details: platelet; Not Active = under 50% inhibition at 10 µM
Adenosine receptor A1 = biological target: T2, Adenosine receptor A1 (Homo sapiens, UniProt P30542); format: cell membranes, CHO, Membrane; details: cho;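 also: radioligand binding assay at the adenosine A1 receptor, with DPCPX serving as the labelled ligand; in other assays of this panel Not Active means under 50% inhibition at 10 µM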
T2 sequence (P30542 whole entry): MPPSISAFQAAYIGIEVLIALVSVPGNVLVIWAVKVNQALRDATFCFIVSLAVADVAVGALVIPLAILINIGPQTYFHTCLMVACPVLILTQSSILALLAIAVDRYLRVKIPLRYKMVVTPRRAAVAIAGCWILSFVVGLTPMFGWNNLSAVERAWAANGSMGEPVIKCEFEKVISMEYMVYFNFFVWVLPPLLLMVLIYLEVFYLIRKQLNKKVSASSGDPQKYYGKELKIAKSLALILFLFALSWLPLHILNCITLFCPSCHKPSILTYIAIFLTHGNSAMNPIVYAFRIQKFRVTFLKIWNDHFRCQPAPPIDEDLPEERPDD

Sequence of Sigma non-opioid intracellular receptor 1 (Q99720 whole entry): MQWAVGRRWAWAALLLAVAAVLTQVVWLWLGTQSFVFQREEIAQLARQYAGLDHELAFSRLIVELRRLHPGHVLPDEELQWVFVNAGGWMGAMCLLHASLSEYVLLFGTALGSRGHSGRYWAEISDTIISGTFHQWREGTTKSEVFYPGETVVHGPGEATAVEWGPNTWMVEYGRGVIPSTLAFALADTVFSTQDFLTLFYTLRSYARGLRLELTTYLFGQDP

Row | Compound | IC50 ([1]; jurkat) | IC50 [2] | IC50 [3] | Ki [3] | IC50 (Melanocortin receptor 3) | IC50 (Mu-type opioid receptor; cho-k1) | IC50 [4] | IC50 (Adenosine receptor A1) | Ki (Mu-type opioid receptor) [µM] | IC50 (Mu-type opioid receptor; read-out: IC50) [µM] | IC50 ([1]; read-out: IC50) [µM] | Ki ([1]; read-out: Ki) [µM]
1 | CCCCCC[C@H]1C(=O)O[C@H](C)[C@H](NC(=O)c2cccc(NC=O)c2O)C(=O)O[C@@H](C)[C@@H]1OC(=O)CC(C)C [ANTIMYCIN A] | Not Active | Not Active | Not Active | Not Active | Not Active | Not Active | Not Active | Not Active | – | – | – | –
2 | C[C@@H]1CC[C@H]2[C@@H](C)C(=O)O[C@@H]3O[C@@]4(C)CC[C@@H]1[C@]32OO4 [ARTEMISININ] | Not Active | Not Active | Not Active | Not Active | Not Active | Not Active | Not Active | Not Active | – | – | – | –
3 | CO[C@H]1[C@@H](O)[C@H](N)[C@@H](O[C@H]2O[C@H]([C@H](C)N)CC[C@H]2N)[C@H](O)[C@@H]1N(C)C(=O)CN [ASTROMICIN] | Not Active | Not Active | Not Active | Not Active | Not Active | Not Active | Not Active | Not Active | – | – | – | –
4 | [N-]=[N+]=CC(=O)OC[C@H](N)C(=O)O [AZASERINE] | Not Active | Not Active | Not Active | Not Active | Not Active | Not Active | Not Active | Not Active | – | – | – | –
5 | CC[C@H]1OC(=O)[C@H](C)[C@@H](O[C@H]2C[C@@](C)(OC)[C@@H](O)[C@H](C)O2)[C@H](C)[C@@H](O[C@@H]2O[C@H](C)C[C@H](N(C)C)[C@H]2O)[C@](C)(O)C[C@@H](C)CN(C)[C@H](C)[C@@H](O)[C@]1(C)O [AZITHROMYCIN] | Not Active | Not Active | Not Active | Not Active | Not Active | Not Active | Not Active | Not Active | – | – | – | –
6 | CC(C)(C)c1ccc(S(=O)(=O)/C=C/C#N)cc1 [BAY-11-7085] | Not Active | Not Active | Not Active | Not Active | Not Active | Not Active | Not Active | Not Active | – | – | – | –
7 | CCc1oc2ccccc2c1C(=O)c1cc(Br)c(O)c(Br)c1 [BENZBROMARONE] | Not Active | Not Active | Not Active | Not Active | Not Active | Not Active | Not Active | Not Active | – | – | – | –
8 | O=c1cc(-c2ccccc2)oc2ccc3ccccc3c12 [BETA-NAPHTHOFLAVONE] | Not Active | Not Active | Not Active | Not Active | Not Active | Not Active | Not Active | Not Active | – | – | – | –
9 | CS(=O)(=O)OCCCCOS(C)(=O)=O [BUSULFAN] | Not Active | Not Active | Not Active | Not Active | Not Active | Not Active | Not Active | Not Active | – | – | – | –
10 | O=C(/C=C/c1ccc(O)c(O)c1)OCCc1ccccc1 [CAFFEIC ACID PHENETHYL ESTER] | Not Active | Not Active | Not Active | Not Active | Not Active | Not Active | Not Active | Not Active | – | – | – | –
11 | COc1cc(CNC(=O)CCCC/C=C/C(C)C)ccc1O [CAPSAICIN] | Not Active | Not Active | Not Active | Not Active | Not Active | Not Active | Not Active | Not Active | – | – | – | –
12 | NC(=O)N1c2ccccc2C=Cc2ccccc21 [CARBAMAZEPINE] | Not Active | Not Active | Not Active | Not Active | Not Active | Not Active | Not Active | Not Active | – | – | – | –
13 | CCOC(=O)n1ccn(C)c1=S [CARBIMAZOLE] | Not Active | Not Active | Not Active | Not Active | Not Active | Not Active | Not Active | Not Active | – | – | – | –
14 | Oc1ccccc1O [CATECHOL] | Not Active | Not Active | Not Active | Not Active | Not Active | Not Active | Not Active | Not Active | – | – | – | –
15 | CO[C@@]1(NC(=O)CSCC#N)C(=O)N2C(C(=O)O)=C(CSc3nnnn3C)CS[C@@H]21 [CEFMETAZOLE] | Not Active | Not Active | Not Active | Not Active | Not Active | Not Active | Not Active | Not Active | – | – | – | –
16 | CN(C(=O)CCCOc1ccc2[nH]c(=O)ccc2c1)C1CCCCC1 [CILOSTAMIDE] | Not Active | Not Active | Not Active | Not Active | Not Active | Not Active | Not Active | Not Active | – | – | – | –
17 | CC(C)(Oc1ccc(C2CC2(Cl)Cl)cc1)C(=O)O (stereo unspecified) [CIPROFIBRATE] | Not Active | Not Active | Not Active | Not Active | Not Active | Not Active | Not Active | Not Active | – | – | – | –
18 | Nc1nc(Cl)nc2c1ncn2[C@H]1C[C@H](O)[C@@H](CO)O1 [CLADRIBINE] | Not Active | Not Active | Not Active | Not Active | Not Active | Not Active | Not Active | Not Active | – | – | – | –
19 | CC[C@H]1OC(=O)[C@H](C)[C@@H](O[C@H]2C[C@@](C)(OC)[C@@H](O)[C@H](C)O2)[C@H](C)[C@@H](O[C@@H]2O[C@H](C)C[C@H](N(C)C)[C@H]2O)[C@](C)(OC)C[C@@H](C)C(=O)[C@H](C)[C@@H](O)[C@]1(C)O [CLARITHROMYCIN] | Not Active | Not Active | Not Active | Not Active | Not Active | Not Active | Not Active | Not Active | – | – | – | –
20 | CCC[C@@H]1C[C@@H](C(=O)N[C@@H]([C@H]2O[C@H](SC)[C@H](O)[C@@H](O)[C@H]2O)[C@H](C)Cl)N(C)C1 [CLINDAMYCIN] | Not Active | Not Active | Not Active | Not Active | Not Active | Not Active | Not Active | Not Active | – | – | – | –
21 | O=C(O)c1cc(=O)c2c(OCC(O)COc3cccc4oc(C(=O)O)cc(=O)c34)cccc2o1 [CROMOLYN] | Not Active | Not Active | Not Active | Not Active | Not Active | Not Active | Not Active | Not Active | – | – | – | –
22 | O=P1(N(CCCl)CCCl)NCCCO1 (stereo unspecified) [CYCLOPHOSPHAMIDE ANHYDROUS] | Not Active | Not Active | Not Active | Not Active | Not Active | Not Active | Not Active | Not Active | – | – | – | –
23 | CC(=O)O[C@]1(C(C)=O)CC[C@H]2[C@@H]3C=C(Cl)C4=CC(=O)[C@@H]5C[C@@H]5[C@]4(C)[C@H]3CC[C@@]21C [CYPROTERONE ACETATE] | Not Active | Not Active | Not Active | Not Active | Not Active | – | Not Active | Not Active | 0.886 | 2.18 | – | –
24 | C#C[C@]1(O)CC[C@H]2[C@@H]3CCC4=Cc5oncc5C[C@]4(C)[C@H]3CC[C@@]21C [DANAZOL] | Not Active | Not Active | Not Active | Not Active | Not Active | – | Not Active | Not Active | 5.72 | 14.1 | – | –
25 | CCN[C@@H](C)Cc1cccc(C(F)(F)F)c1 [DEXFENFLURAMINE] | – | Not Active | Not Active | Not Active | Not Active | Not Active | Not Active | Not Active | – | – | 0.516 | 0.217
26 | C[C@H](C(=O)O)c1cccc(C(=O)c2ccccc2)c1 [DEXKETOPROFEN] | Not Active | Not Active | Not Active | Not Active | Not Active | Not Active | Not Active | Not Active | – | – | – | –
